Reference: patent US20220119355A1, “SATURATED-RING-FUSED DIHYDROPYRIMIDINONE OR DIHYDROTRIAZINONE COMPOUNDS AND PHARMACEUTICAL USE THEREOF” (Japan Tobacco Inc., priority 2018, published 2022)

Tests used:
mouse RORγ = biological target: T1, mouse RORγ (Mus musculus, UniProt P51450); assay: In-vitro reporter gene assay for inhibitory activity against RORγ transcription, Test Method B (pFA/mRORγ LBD / pG5-Luc in CHO cells); type: cell-based; details: luciferase reporter, CHO cells, 2 days
T1 construct: from Ile251 to Lys516 for mouse RORγ; expressed in transfected cells; host or cells: CHO cells (transient co-transfection with pG5-Luc)
T1 sequence (P51450 251-516): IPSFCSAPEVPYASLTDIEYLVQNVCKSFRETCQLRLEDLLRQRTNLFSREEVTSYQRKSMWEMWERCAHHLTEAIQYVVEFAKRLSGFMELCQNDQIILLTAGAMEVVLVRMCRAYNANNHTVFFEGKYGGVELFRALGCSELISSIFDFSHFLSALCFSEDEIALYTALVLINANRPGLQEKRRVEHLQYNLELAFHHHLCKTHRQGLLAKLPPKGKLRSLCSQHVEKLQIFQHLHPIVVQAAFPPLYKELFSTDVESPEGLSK
Experimental: (§1) In-Vitro Assay for Inhibitory Activity Against RORγ Transcription
(§2) Inhibitory activity against RORγ transcription was assessed for test compounds by either of the following Test Method A or B of reporter gene assay.
(§3) cDNAs encoding human and mouse RORγ ligand binding domains (LBD) were obtained based on the sequences of human RORγ (Genbank registered number NM_005060.3) and mouse RORγ (Genbank registered number NM_011281.2) (LBD sequences: from Ser253 to Lys518 for human RORγ; from Ile251 to Lys516 for mouse RORγ).
(§4) LBD cDNAs of human and mouse RORγ were inserted into pFA-CMV vector (Agilent Technologies, Inc.), which expresses GAL4-DNA binding domain fusion protein. The resulting plasmids are hereinafter referred to as pFA/hRORγ plasmid and pFA/mRORγ plasmid, respectively.
(§5) pFA/hRORγ plasmid or pFA/mRORγ plasmid was transiently co-transfected into Chinese hamster ovary cells (CHO cells) with pG5-Luc (Promega), reporter plasmid expressing firefly luciferase in a GAL4-dependent manner.
(§6) TransIT (Registered trademark) CHO Transfection Kit (Mirus) was used to co-transfect CHO cells with the plasmids. One day prior to the assay, CHO cells were suspended in HAM F-12 Nutrient medium containing 10% (v/v) fetal bovine serum and seeded at 5.5×10^6 cells per 225 cm^2 cell culture flask each. 72 μL of TransIT (Registered trademark) CHO reagent was added into a 2 mL tube containing 1.55 mL of Opti-MEM, and then mixed and incubated at room temperature for 10 minutes. 50.4 μL of a plasmid solution containing 300 ng of pFA/hRORγ plasmid, 12000 ng of pG5-Luc plasmid, and 11700 ng of pcDNA3.1 plasmid were added into the tube and mixed gently. In the case of mouse assay, a plasmid solution containing 300 ng of pFA/mRORγ plasmid, 12000 ng of pG5-Luc plasmid, and 11700 ng of pcDNA3.1 plasmid was added, instead. The mixture was incubated at room temperature for 10 minutes. 12 μL each of CHO Mojo Reagent were then added into each tube and mixed gently. The mixture was incubated at room temperature for 10 minutes. The resulting transfection reagent was applied to the cell culture. After incubation at 37° C., 5% CO2 for 4 hours, the plasmid-transfected CHO cells were harvested by trypsin treatment. The collected cells were resuspended in culture medium and plated into a 384-well-white plate at 8,000 cells/35 μL/well. The plate was let stand at room temperature for 1 hour and then further incubated at 37° C., 5% CO2 for 3 hours. A test compound was dissolved in dimethyl sulfoxide (DMSO) to obtain a concentration of 10 mM. Each solution was serially diluted with DMSO and further diluted with culture medium just before use. The test compound solutions were added to the cells in the plate at 6 different concentrations. The final concentration of DMSO was 0.2% (v/v). After the addition of test compound, the cells were incubated at 37° C., 5% CO2 for 2 days.
(§7) RORγ transcriptional activity was detected as the intracellular luciferase activity using SteadyLite HTS Reporter Gene Assay System (Perkin Elmer). SteadyLite Reagent was diluted 2.5-fold with Extension buffer (10 mM Tricine, 0.2% (w/v) bovine serum albumin, 0.02% (v/v) Tween-20) to obtain a luciferase substrate solution. Two days after the addition of test compound, 40 μL each of the luciferase substrate solution was added into the 384-well-plate. After the incubation at room temperature for 10 minutes, luminescence of each well was measured with a microplate reader. The luciferase activity derived from the luminescence count in a vehicle-control well treated with 0.2% DMSO alone was defined as 100%, and the luciferase activity after treatment of the test compound was calculated as a percentage, %-of-control, based on the value of the vehicle-control. An EC50 value of the test compound was calculated by curve fitting. The luminescence counts at the concentration of test compound where cytotoxicity was observed were excluded from data analysis. […]

human RORγ = biological target: T2, human RORγ (Homo sapiens, UniProt P51449); assay: In-vitro reporter gene assay for inhibitory activity against RORγ transcription, Test Method B (pFA/hRORγ LBD / pG5-Luc in CHO cells); type: cell-based; details: luciferase reporter, CHO cells, 2 days
T2 construct: from Ser253 to Lys518 for human RORγ; expressed in transfected cells; host or cells: CHO cells (transient co-transfection with pG5-Luc)
T2 sequence (P51449 253-518): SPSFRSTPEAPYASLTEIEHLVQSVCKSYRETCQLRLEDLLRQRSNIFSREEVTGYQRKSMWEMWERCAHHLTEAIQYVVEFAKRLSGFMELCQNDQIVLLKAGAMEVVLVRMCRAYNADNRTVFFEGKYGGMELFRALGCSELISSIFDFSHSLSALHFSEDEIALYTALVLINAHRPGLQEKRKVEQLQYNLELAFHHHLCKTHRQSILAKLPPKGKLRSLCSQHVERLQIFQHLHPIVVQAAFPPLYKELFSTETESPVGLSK
Experimental: as §1, §2, §3, §4, §5, §6, §7

Row | EC50 (mouse RORγ) [µM] | EC50 (human RORγ) [µM] | Structure (SMILES)
1 | 0.037 | 0.033 | C[C@H]1CCC2(c3ccc(C4C(C(C)(C)C)C4(F)F)c(Cl)c3)NC(=O)N(C34CC(C(=O)O)(C3)C4)C=C2[C@@H]1C (single isomer, unassigned) [Example 113]
2 | 0.04 | 0.035 | CC1C2=CN(C34CCC(C(=O)O)(C3)C4)C(=O)N[C@]2(c2ccc(CCC(C)(C)C)c(Cl)c2)COC1(C)C (single isomer, unassigned) [Example 121]
3 | 0.113 | 0.102 | CC(C)C1CC[C@@]2(c3ccc(CCC(C)(C)C)c(Cl)c3)NC(=O)N([C@H]3CC[C@@H](C(=O)O)C3)C=C2C1 (single isomer, unassigned) [Example 105]
4 | 0.032 | 0.027 | C[C@H]1CCC2(c3ccc(CCC(C)(C)C)c(Cl)c3)NC(=O)N(C34CC(C(=O)O)(C3)C4)C=C2[C@@H]1C (single isomer, unassigned) [Example 107]
5 | 5.28 | 5.26 | CC(C)C1CC[C@]2(c3ccc(CCC(C)(C)C)c(Cl)c3)NC(=O)N([C@H]3CC[C@@H](C(=O)O)C3)C=C2C1 (single isomer, unassigned) [Example 104]
6 | 0.082 | 0.033 | CC1C2=CN(C34CC(C(=O)O)(C3)C4)C(=O)N[C@]2(c2ccc(CCC(C)(C)C)c(Cl)c2)CCC1(C)C (single isomer, unassigned) [Example 118]
7 | 5.05 | 4.69 | CC1C2=CN(C34CC(C(=O)O)(C3)C4)C(=O)N[C@@]2(c2ccc(CCC(C)(C)C)c(Cl)c2)COC1(C)C (single isomer, unassigned) [Example 108]
8 | 0.049 | 0.031 | C[C@H]1CCC2(c3ccc(C4C(C(C)(C)C)C4(F)F)c(Cl)c3)NC(=O)N(C34CCC(C(=O)O)(C3)C4)C=C2[C@@H]1C (single isomer, unassigned) [Example 115]
9 | 0.02 | 0.013 | CC1C2=CN(C34CCC(C(=O)O)(C3)C4)C(=O)N[C@]2(c2ccc(CCC(C)(C)C)c(Cl)c2)COC1(C)C (single isomer, unassigned) [Example 120]
10 | 3.66 | 3.45 | CC1CC[C@]2(c3ccc(CCC(C)(C)C)c(Cl)c3)NC(=O)N(C34CCC(C(=O)O)(C3)C4)C=C2C1 (single isomer, unassigned) [Example 111]
11 | 0.012 | 0.01 | CC1C2=CN(C34CC(C(=O)O)(C3)C4)C(=O)N[C@]2(c2ccc(CCC(C)(C)C)c(Cl)c2)COC1(C)C (single isomer, unassigned) [Example 110]
12 | > 10 | > 10 | CC1C2=CN(C34CCC(C(=O)O)(C3)C4)C(=O)N[C@@]2(c2ccc(CCC(C)(C)C)c(Cl)c2)COC1(C)C (single isomer, unassigned) [Example 119]
13 | 0.038 | 0.035 | CC1CC[C@@]2(c3ccc(CCC(C)(C)C)c(Cl)c3)NC(=O)N(C34CCC(C(=O)O)(C3)C4)C=C2C1 (single isomer, unassigned) [Example 112]
14 | 0.036 | 0.033 | CC1C2=CN(C34CC(C(=O)O)(C3)C4)C(=O)N[C@]2(c2ccc(CCC(C)(C)C)c(Cl)c2)COC1(C)C (single isomer, unassigned) [Example 109]
15 | 0.046 | 0.026 | CC(C)(C)CCc1ccc([C@@]23CCC(C)(C)CC2=CN(C24CC(C(=O)O)(C2)C4)C(=O)N3)cc1Cl (single isomer, unassigned) [Example 103]
16 | 5.3 | 4.68 | CC1C2=CN(C34CC(C(=O)O)(C3)C4)C(=O)N[C@@]2(c2ccc(CCC(C)(C)C)c(Cl)c2)CCC1(C)C (single isomer, unassigned) [Example 117]
17 | 0.05 | 0.027 | C[C@H]1CCC2(c3ccc(C4C(C(C)(C)C)C4(F)F)c(Cl)c3)NC(=O)N(C34CC(C(=O)O)(C3)C4)C=C2[C@@H]1C (single isomer, unassigned) [Example 114]

Second part, the compound before the results:

Row | Structure (SMILES) | EC50 (mouse RORγ) [µM] | EC50 (human RORγ) [µM]
18 | CC(C)(C)CCc1ccc([C@@]23CCC(F)(F)CC2=CN(C24CC(C(=O)O)(C2)C4)C(=O)N3)cc1Cl (single isomer, unassigned) [Example 87] | 0.029 | 0.038
19 | CCCCOc1ccc(C23CCCCC2=CN(CCC(=O)O)C(=O)N3)cc1Cl (racemic) [Example 101] | 1.39 | 7.28
20 | CCC1CC[C@@]2(c3ccc(CCC(C)(C)C)c(Cl)c3)NC(=O)N(C34CC(C(=O)O)(C3)C4)C=C2C1 (single isomer, unassigned) [Example 94] | 0.082 | 0.046
21 | CC1C2=CN(C34CC(C(=O)O)(C3)C4)C(=O)NC2(c2ccc(CCC(C)(C)C)c(Cl)c2)CC1(C)C (single isomer, unassigned) [Example 35] | 4.97 | 4.19
22 | CCC1CC[C@]2(c3ccc(CCC(C)(C)C)c(Cl)c3)NC(=O)N(C34CC(C(=O)O)(C3)C4)C=C2C1 (single isomer, unassigned) [Example 93] | 4.23 | 3.97
23 | CC(C)(C)CCc1ccc(C23CCC(C#N)CC2=CN(C24CC(C(=O)O)(C2)C4)C(=O)N3)cc1Cl (single isomer, unassigned) [Example 97] | 0.156 | 0.11
24 | CC(C)C1CC[C@@]2(c3ccc(CCC(C)(C)C)c(Cl)c3)NC(=O)N(C34CC(C(=O)O)(C3)C4)C=C2C1 (single isomer, unassigned) [Example 99] | 0.146 | 0.053
25 | CC1CC[C@@]2(c3ccc(CCC(C)(C)C)c(Cl)c3)NC(=O)N(C34CC(C(=O)O)(C3)C4)C=C2C1 (single isomer, unassigned) [Example 92] | 0.019 | 0.042
26 | O=C(O)CCN1C=C2CCCCC2(c2ccc(OC3CCCCC3)c(Cl)c2)NC1=O (racemic) [Example 95] | 0.455 | 2.34
27 | CC1(C)CC1COc1ccc(C23CCCCC2=CN(CCC(=O)O)C(=O)N3)cc1Cl (racemic) [Example 88] | 0.169 | 0.751
28 | CC(C)(C)CCc1ccc([C@]23CCC(C)(C)CC2=CN(C24CC(C(=O)O)(C2)C4)C(=O)N3)cc1Cl (single isomer, unassigned) [Example 102] | 4.57 | 3.95
29 | CC1CC[C@]2(c3ccc(CCC(C)(C)C)c(Cl)c3)NC(=O)N(C34CC(C(=O)O)(C3)C4)C=C2C1 (single isomer, unassigned) [Example 91] | 0.185 | 0.111
30 | CC1(C)CC(COc2ccc(C34CCCCC3=CN(CCC(=O)O)C(=O)N4)cc2Cl)C1 (racemic) [Example 100] | 0.055 | 0.206
